Reference: US20060167098A1, “Method for the treatment of diseases linked to an accumulation of triglycerides and cholesterol” (Institut National De La Sante ET De LA Recherche Medicale …, priority 2003, published 2006)

Columns and labels:
Format in all cases: in vivo
[1] = Plasma HDL-cholesterol and triglycerides in ob/ob mice during a 4-month treatment
Protocol: (§1) Plasma lipids (triglycerides, total cholesterol, phospholipids) were measured on an automatic analyser (Hitachi 717®). The commercial kits used to assess triglycerides, total cholesterol and phospholipids on this analyser were all from bioMérieux (references 61238, 61219 and 61491, respectively). Plasma non esterified fatty acids (NEFA) were assessed by using a commercial kit (Wako, reference 994-75409). Hepatic and plasma lipids were performed at the end of six weeks of treatment in animals that have been fasted for 48 hours. Triglycerides and HDL-cholesterol were also assessed after 2 months (in the fed state) or after 4 months of treatment (after an overnight fast).
Plasma HDL-cholesterol and alanine aminotransferase (ALT) were measured on an automatic analyser (Olympus AU400®) with commercial kits (Olympus Diagnostica GmbH, references OSR6187 and OSR6107, respectively).
In this series of experiments, plasma lipids, and especially HDL-cholesterol were assessed in ob/ob mice during a 4-month period of treatment. Mice were fed with standard diet. Ob/ob mice were treated for 4 months with β-aminoisobutyric acid, administered either at the usual dose (100 mg/kg/day) or at a higher dose (500 mg/kg/day). After two months, measurements were done in the fed state, while at the end of the treatment (i.e. after 4 months) plasma parameters were assessed after a overnight fasting period (i.e. 15 hours). One mice in the control group died between the third and fourth month of treatment.
The number of mice at the end of the experiment was 6,7 and 8, respectively in the control group and the groups treated with 100 and 500 mg/kg/day of β-aminoisobutyric acid. It is noteworthy that the animals studied in this experiment are the same than those cholesterol. Indeed, HDL-cholesterol was 3.26±0.33, 3.45±0.31 and 3.64±0.31 mmol/L, respectively in control mice and mice treated with 100 and 500 mg/kg/day of β-aminoisobutyric acid. Plasma triglycerides tended to be decreased in treated mice. Triglycerides were indeed 1.37±0.13, 1.09±0.06 and 1.25±0.17 mmol/L, respectively in control mice and mice treated with 100 and 500 mg/kg/day of β-aminoisobutyric acid.

[2] = Plasma glucose and insulin in obese ob/ob mice (10 to 12-weeks old), 6 weeks
Protocol: Plasma glucose was measured on an automatic analyser (Synchron LX20 from Beckman Coulter) with a commercial kit (kit n°472500 from Beckman).
Plasma insulin, adiponectin and leptin were measured by radioimmunoassay (RIA). Insulin was measured with the Insulin-CT kit from Cis Bio International (Gif-sur-Yvette, France), whereas plasma leptin and adiponectin were assessed with kits from Linco Research Inc. (St Charles, Mo.). Leptin was not measured in ob/ob mice since these animals are genetically leptin-deficient (Friedman J. M., Halaas J. L., 1998, Nature 395: 763-770). Results regarding insulin were expressed as recommended by kit manufacturer.
In obese ob/ob mice (10 to 12-weeks old) treated with 100 mg/kg/d of β-aminoisobutyric acid for 6 weeks and fasted for the last 48 hours, there was a trend toward lower plasma levels of glucose and insulin. Indeed, plasma glucose was 11.1±1.4 and 9.0±0.9 mmol/L, respectively in control ob/ob mice (n=6) and mice treated with β-aminoisobutyric acid (n=8). Plasma insulin was 37±19 and 24±6 μU/ml, respectively in control mice (n=4) and mice treated with β-aminoisobutyric acid (n=5). […] Indeed, insulin was 83±13 and 64±7 μU/ml, respectively in control mice (n=5) and mice treated with β-aminoisobutyric acid (n=5).

[3] = Plasma lipids in ob/ob mice, 6 weeks, 48-hour fast
Protocol: as §1
Plasma lipids were assessed in ob/ob mice fed with a standard diet and receiving or not β-aminoisobutyric acid (BAIBA) in the drinking water during 6 weeks. These animals (7 controls and 10 treated with BAIBA) were those used for the determination of hepatic lipids (see above, paragraph II-b). At the end of the 6 weeks of treatment, mice were submitted to a 48-hour period of fast. Samples of blood were then collected (from the retroorbital sinus) for the assessment of plasma triglycerides, phospholipids and total cholesterol and mice were subsequently killed for assessment of liver triglycerides (see above). In this experiment, BAIBA decreased by 5, 23 and 19%, respectively plasma triglycerides, phospholipids and total cholesterol. The results are submitted in FIG. 7.

[4] = Liver triglycerides in ob/ob mice, 6 weeks; conditions: 100 mg/kg/day 6 weeks, fasted 48 h
Protocol: Total lipids and triglycerides in the liver of animals were assessed according to a procedure partially reported by (Letteron P., Fromenty B., Terris B., Degott C., Pessayre D., 1996, J. Hepatol. 24 : 200-208). Briefly, after killing of the animals, livers were removed and homogenized in sterile water. Hepatic lipids were thus extracted by a mixture of chloroform and methanol (2/1; v/v). After removal of the aqueous phase, the organic phase (chloroform containing the lipids) was evaporated and the amount of lipids was determined by gravimetry. Lipids were subsequently resuspended in isopropanol (final concentration, ca. 10 mg/mL). After removal of the phopholipids by using aluminum hydroxide hydrate, triglycerides were determined colorimetrically by using periodate and the Nash's reagent (containing acetylacetone, ammonium acetate and isopropanol). The reaction generates diacetyldihydrolutidine which is assayed by spectrophotometry (λ=410 nm).
Liver triglycerides were assessed in ob/ob mice fed with a standard diet and receiving or not of 100 mg/kg/day of β-aminoisobutyric acid (BAIBA) in the drinking water during 6 weeks. Mice were 10 weeks old at the beginning of the experiment. These animals (7 controls and 10 treated with BAIBA) were different from those used for the determination of body fat by DEXA in the fed state (see above, paragraph I-d). At the end of the 6 weeks of treatment mice were submitted to a 48-hour period of fast At the end of this fasting period mice were killed for assessment of liver triglycerides. […] Indeed, liver triglycerides were reduced by 16 and 12%, respectively when the values were expressed as mg/whole liver or as mg/gram of lipids.

[5] = 100 mg/kg/day, after 4 months, fasted state
[6] = 100 mg/kg/day, first time point (two months, fed state)
[7] = 500 mg/kg/day, after 4 months, fasted state
[8] = 500 mg/kg/day, first time point (two months, fed state)
[9] = 100 mg/kg/d 6 weeks, ob/ob 10 to 12-weeks old, fasted 48 hours
[10] = obese mice, standard diet, 6 weeks

Structure (SMILES): CC(CN)C(=O)O (racemic) [BAIBA, D,L-β-Aminoisobutyric acid]
- HDL-cholesterol [1, 5]: 4.01 ± 0.30 mmol/L
- plasma triglycerides [1, 5]: 1.34 ± 0.08 mmol/L
- HDL-cholesterol [1, 6]: 3.45 ± 0.31 mmol/L
- plasma triglycerides [1, 6]: 1.09 ± 0.06 mmol/L
- HDL-cholesterol [1, 7]: 3.98 ± 0.31 mmol/L
- plasma triglycerides [1, 7]: 1.26 ± 0.07 mmol/L
- HDL-cholesterol [1, 8]: 3.64 ± 0.31 mmol/L
- plasma triglycerides [1, 8]: 1.25 ± 0.17 mmol/L
- plasma glucose [2, 9]: 9.0 ± 0.9 mmol/L
- plasma insulin [2, 9]: 24±6 μU/ml
- plasma insulin ([2]; 100 mg/kg/d 6 weeks, ob/ob 10 to 12-weeks old, fed state): 64±7 μU/ml
- decrease of the glucose plasma level [2, 10]: around 20%
- decrease of the insulin plasma level [2, 10]: around 35%
- decrease of plasma phospholipids [3]: 23%
- decrease of plasma total cholesterol [3]: 19%
- decrease of plasma triglycerides [3]: 5%
- plasma triglycerides [3]: 1.32 ± 0.14 mmol/L
- plasma phospholipids ([3]; p<0.01): 4.07 ± 0.26 mmol/L
- plasma total cholesterol ([3]; p<0.05): 4.98 ± 0.34 mmol/L
- reduction of liver triglycerides (values as mg/gram of lipids) [4]: 12%
- reduction of liver triglycerides (values as mg/whole liver) [4]: 16%
- liver triglycerides ([4]; p<0.01): 625±14 mg/g of lipids
